pIC50: −log10 of the molar value.

The assay has as its target T1, human Npt2a (Homo sapiens, UniProt Q06495).
T1 construct: expressed in transfected cells
T1 sequence (Q06495 1-639): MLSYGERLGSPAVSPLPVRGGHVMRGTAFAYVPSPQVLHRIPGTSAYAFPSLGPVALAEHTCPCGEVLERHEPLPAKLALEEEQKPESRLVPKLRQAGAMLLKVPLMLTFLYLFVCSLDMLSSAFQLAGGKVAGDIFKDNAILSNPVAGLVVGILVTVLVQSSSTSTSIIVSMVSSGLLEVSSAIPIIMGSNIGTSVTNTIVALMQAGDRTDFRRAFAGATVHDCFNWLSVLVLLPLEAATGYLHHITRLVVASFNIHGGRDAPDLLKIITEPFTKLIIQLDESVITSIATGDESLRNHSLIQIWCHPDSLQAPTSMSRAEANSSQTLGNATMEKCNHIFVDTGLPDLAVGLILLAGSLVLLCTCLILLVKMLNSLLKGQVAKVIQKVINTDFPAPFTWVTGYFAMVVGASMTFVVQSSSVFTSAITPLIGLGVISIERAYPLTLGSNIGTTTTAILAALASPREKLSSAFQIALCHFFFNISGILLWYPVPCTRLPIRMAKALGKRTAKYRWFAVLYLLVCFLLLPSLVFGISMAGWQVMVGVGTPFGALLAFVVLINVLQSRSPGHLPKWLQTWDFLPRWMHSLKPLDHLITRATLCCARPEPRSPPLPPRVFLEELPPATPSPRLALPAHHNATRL
The assay can be described thus: Npt2a activity cell based assay, membrane potential dye, CHO T-REx hNpt2a cells. The note with it: doxycycline-induced, depolarization by sodium phosphate influx, average or median values if tested more than once. Summed up: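 Cells were doxycycline-induced CHO T-REx hNpt2a, dye-loaded and pretreated 5 min at RT with 1 nM–50 μM compound in Na-free pH 7.4 buffer. IC50 was fit to the post/pre-trigger fluorescence ratio.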
The term pIC50 denotes −log10 of the IC50, conventionally taken in molar units. Lower therefore signals a large IC50. `CCc1c(Nc2cc(-n3nc(C)cc3C)ncn2)nn(C)c1-c1ccc(C#N)cc1` [Example 210, 4-(3-{[6-(3,5-dimethyl-1H-pyrazol-1-yl)pyrimidin-4-yl]amino}-4-ethyl-1-methyl-1H-pyrazol-5-yl)benzonitrile]: the negative-log IC50 (pIC50) is 7.89.

Take `Cc1nn(-c2cc(Nc3c(C)c(-c4ccc(C#N)cc4)nn3C)ncn2)c2c1C(=O)CC2` [Example 211, 4-(1,4-dimethyl-5-{[6-(3-methyl-4-oxo-5,6-dihydrocyclopenta[c]pyrazol-1(4H)-yl)pyrimidin-4-yl]amino}-1H-pyrazol-3-yl)benzonitrile]: the negative-log IC50 (pIC50) was 6.70.

In the case of `Cc1cc(C)n(-c2cc(Nc3nn(CCC4CC4)c(-c4ccc(C#N)cc4)c3C)ncn2)n1` [Example 212, 4-[1-(2-cyclopropylethyl)-3-{[6-(3,5-dimethyl-1H-pyrazol-1-yl)pyrimidin-4-yl]amino}-4-methyl-1H-pyrazol-5-yl]benzonitrile], the negative logarithm of the IC50 (pIC50) is 5.93.

`CCOC(=O)c1c(C)nn(-c2cc(Nc3c(C)c(-c4ccc(C#N)cc4)nn3C)ncn2)c1C` [Example 213, ethyl 1-(6-{[3-(4-cyanophenyl)-1,4-dimethyl-1H-pyrazol-5-yl]amino}pyrimidin-4-yl)-3,5-dimethyl-1H-pyrazole-4-carboxylate] had a pIC50 of 8.70.

For `COc1c(Nc2cc(-n3nc(C)c4ccncc43)ncn2)n[nH]c1-c1ccc(C#N)cc1` [Example 214, 4-(4-methoxy-3-{[6-(3-methyl-1H-pyrazolo[3,4-c]pyridin-1-yl)pyrimidin-4-yl]amino}-1H-pyrazol-5-yl)benzonitrile], the pIC50 is 7.07.

As to `CCc1c(Nc2cc(-n3nc(C)c(C4(O)CCC4)c3C)ncn2)nn(C)c1-c1ccc(F)cc1` [Example 215, 1-[1-(6-{[4-ethyl-5-(4-fluorophenyl)-1-methyl-1H-pyrazol-3-yl]amino}pyrimidin-4-yl)-3,5-dimethyl-1H-pyrazol-4-yl]cyclobutanol], the pIC50 was 6.60.

As for `CCc1c(-c2ccc(C#N)cc2)nn(C)c1Nc1cc(-n2nc(C)cc2C(F)F)ncn1` [Example 216, 4-[5-({6-[5-(difluoromethyl)-3-methyl-1H-pyrazol-1-yl]pyrimidin-4-yl}amino)-4-ethyl-1-methyl-1H-pyrazol-3-yl]benzonitrile], the negative-log IC50 (pIC50) was 7.92.

Molecule `CCc1c(Nc2cc(-n3nc(C)cc3C(F)F)ncn2)nn(C)c1-c1ccc(C#N)cc1` [Example 217, 4-[3-({6-[5-(difluoromethyl)-3-methyl-1H-pyrazol-1-yl]pyrimidin-4-yl}amino)-4-ethyl-1-methyl-1H-pyrazol-5-yl]benzonitrile] showed a pIC50 of 8.70.

`Cc1nn(-c2cc(Nc3c(Cl)c(-c4ccc(F)cc4)nn3CC3CC3)ncn2)c2cnccc12` [Example 218, N-[4-chloro-1-(cyclopropylmethyl)-3-(4-fluorophenyl)-1H-pyrazol-5-yl]-6-(3-methyl-1H-pyrazolo[3,4-c]pyridin-1-yl)pyrimidin-4-amine] gave a pIC50 of 7.49.

Regarding `CCOC(=O)c1c(C)nn(-c2cc(Nc3c(C)nn(-c4ccc(C#N)cc4)c3C)ncn2)c1C` [Example 219, ethyl 1-(6-{[1-(4-cyanophenyl)-3,5-dimethyl-1H-pyrazol-4-yl]amino}pyrimidin-4-yl)-3,5-dimethyl-1H-pyrazole-4-carboxylate], the negative logarithm of the IC50 (pIC50) was > 8.80.

In turn, `CCc1c(Nc2cc(-n3nc(C)c(C4(O)COC4)c3C)ncn2)nn(C)c1-c1ccc(F)cc1` [Example 220, 3-[1-(6-{[4-ethyl-5-(4-fluorophenyl)-1-methyl-1H-pyrazol-3-yl]amino}pyrimidin-4-yl)-3,5-dimethyl-1H-pyrazol-4-yl]oxetan-3-ol] showed a pIC50 of 6.49.

Molecule `Cc1nn(-c2cc(Nc3c(C)c(-c4ccc(C#N)cc4)nn3CCC3CC3)ncn2)c(C)c1Cl` [Example 221, 4-[5-{[6-(4-chloro-3,5-dimethyl-1H-pyrazol-1-yl)pyrimidin-4-yl]amino}-1-(2-cyclopropylethyl)-4-methyl-1H-pyrazol-3-yl]benzonitrile] showed a pIC50 of 8.22.

`Cc1nn(-c2cc(Nc3nn(CCC4CC4)c(-c4ccc(C#N)cc4)c3C)ncn2)c(C)c1Cl` [Example 222, 4-[3-{[6-(4-chloro-3,5-dimethyl-1H-pyrazol-1-yl)pyrimidin-4-yl]amino}-1-(2-cyclopropylethyl)-4-methyl-1H-pyrazol-5-yl]benzonitrile] had a pIC50 of 7.36.

As to `CCc1c(Nc2cc(-n3nc(C)c4ncccc43)ncn2)nn(C)c1-c1ccc(F)cc1` [Example 223, N-[4-ethyl-5-(4-fluorophenyl)-1-methyl-1H-pyrazol-3-yl]-6-(3-methyl-1H-pyrazolo[4,3-b]pyridin-1-yl)pyrimidin-4-amine], the pIC50 was 7.44.

On to `CCc1c(Nc2cc(-n3nc(C)c4cnccc43)ncn2)nn(C)c1-c1ccc(F)cc1` [Example 224, N-[4-ethyl-5-(4-fluorophenyl)-1-methyl-1H-pyrazol-3-yl]-6-(3-methyl-1H-pyrazolo[4,3-c]pyridin-1-yl)pyrimidin-4-amine], for which the negative-log IC50 (pIC50) is 7.33.

As for `CCc1c(-c2ccc(F)cc2)nn(CC2CC2)c1Nc1cc(-n2nc(C)c(-c3nnc(C)o3)c2C)ncn1` [Example 225, N-[1-(cyclopropylmethyl)-4-ethyl-3-(4-fluorophenyl)-1H-pyrazol-5-yl]-6-[3,5-dimethyl-4-(5-methyl-1,3,4-oxadiazol-2-yl)-1H-pyrazol-1-yl]pyrimidin-4-amine], the pIC50 is 8.10.

For `CCc1c(-c2ccc(F)cc2)nn(C)c1Nc1cc(-n2nc(C)c(-c3nnc(C)o3)c2C)ncn1` [Example 226, 6-[3,5-dimethyl-4-(5-methyl-1,3,4-oxadiazol-2-yl)-1H-pyrazol-1-yl]-N-[4-ethyl-3-(4-fluorophenyl)-1-methyl-1H-pyrazol-5-yl]pyrimidin-4-amine], the pIC50 was 6.72.

Molecule `Cc1c(Nc2cc(-n3nc(C)c4ccncc43)ncn2)nn(C)c1-c1ccc(C#N)cc1` [Example 228, 4-(1,4-dimethyl-3-{[6-(3-methyl-1H-pyrazolo[3,4-c]pyridin-1-yl)pyrimidin-4-yl]amino}-1H-pyrazol-5-yl)benzonitrile] had a pIC50 of 6.68.

With `CCc1c(-c2ccc(F)cc2)nn(C)c1Nc1cc(-n2nc(C)c3ncccc32)ncn1` [Example 229, N-[4-ethyl-3-(4-fluorophenyl)-1-methyl-1H-pyrazol-5-yl]-6-(3-methyl-1H-pyrazolo[4,3-b]pyridin-1-yl)pyrimidin-4-amine], the pIC50 is 6.46.

Turning to `CCc1c(-c2ccc(F)cc2)nn(C)c1Nc1cc(-n2nc(C)c3cnccc32)ncn1` [Example 230, N-[4-ethyl-3-(4-fluorophenyl)-1-methyl-1H-pyrazol-5-yl]-6-(3-methyl-1H-pyrazolo[4,3-c]pyridin-1-yl)pyrimidin-4-amine], the pIC50 was 6.08.

For the molecule `Cc1c(-c2ccc(C#N)cc2)nn(CC2CC2)c1Nc1cc(-n2nc(C)c3ccncc32)ncn1` [Example 231, 4-[1-(cyclopropylmethyl)-4-methyl-5-{[6-(3-methyl-1H-pyrazolo[3,4-c]pyridin-1-yl)pyrimidin-4-yl]amino}-1H-pyrazol-3-yl]benzonitrile], the pIC50 was 8.70.

For the molecule `Cc1c(-c2ccc(C#N)cc2)nn(CC2CC2)c1Nc1cc(-n2nc(C)c3ncccc32)ncn1` [Example 232, 4-[1-(cyclopropylmethyl)-4-methyl-5-{[6-(3-methyl-1H-pyrazolo[4,3-b]pyridin-1-yl)pyrimidin-4-yl]amino}-1H-pyrazol-3-yl]benzonitrile], the pIC50 is 8.22.

With `Cc1c(-c2ccc(C#N)cc2)nn(CC2CC2)c1Nc1cc(-n2nc(C)c3cnccc32)ncn1` [Example 233, 4-[1-(cyclopropylmethyl)-4-methyl-5-{[6-(3-methyl-1H-pyrazolo[4,3-c]pyridin-1-yl)pyrimidin-4-yl]amino}-1H-pyrazol-3-yl]benzonitrile], the pIC50 is 7.54.

For the molecule `Cc1cc(C(F)F)n(-c2cc(Nc3c(C)c(-c4ccc(C#N)cc4)nn3CC(F)F)ncn2)n1` [Example 234, 4-[1-(2,2-difluoroethyl)-5-({6-[5-(difluoromethyl)-3-methyl-1H-pyrazol-1-yl]pyrimidin-4-yl}amino)-4-methyl-1H-pyrazol-3-yl]benzonitrile], the pIC50 is 7.55.

Molecule `Cc1nn(-c2cc(Nc3nn(C)c(-c4ccc(C#N)cc4)c3C)ncn2)c(C(F)F)c1Cl` [Example 235, 4-[3-({6-[4-chloro-5-(difluoromethyl)-3-methyl-1H-pyrazol-1-yl]pyrimidin-4-yl}amino)-1,4-dimethyl-1H-pyrazol-5-yl]benzonitrile] gave a negative-log IC50 (pIC50) of 8.52.

As to `Cc1cc(C(F)F)n(-c2cc(Nc3nn(C)c(-c4ccc(C#N)cc4)c3C)ncn2)n1` [Example 236, 4-[3-({6-[5-(difluoromethyl)-3-methyl-1H-pyrazol-1-yl]pyrimidin-4-yl}amino)-1,4-dimethyl-1H-pyrazol-5-yl]benzonitrile], the negative logarithm of the IC50 (pIC50) is 8.52.

`Cc1nn(-c2cc(Nc3c(C)c(-c4ccc(C#N)cc4)nn3CCC3CC3)ncn2)c(C(F)F)c1Cl` [Example 237, 4-[5-({6-[4-chloro-5-(difluoromethyl)-3-methyl-1H-pyrazol-1-yl]pyrimidin-4-yl}amino)-1-(2-cyclopropylethyl)-4-methyl-1H-pyrazol-3-yl]benzonitrile] had a pIC50 of 7.82.

For the origin of these results see patent US11208400B2, “Substituted 6-(1H-pyrazol-1-yl)pyrimidin-4-amine derivatives and uses thereof” (Bayer Aktiengesellschaft, priority 2016, dated 2021).
